Measurements reported in publication PMC11946580, “In Vitro Enzymatic and Computational Assessments of Pyrazole–Isatin and Pyrazole–Indole Conjugates as Anti-Diabetic, Anti-Arthritic, and Anti-Inflammatory Agents” (Pharmaceutics, 2025).

Columns and labels:
diabetic mice = test system: diabetic mice; set-up: method as in PMID 38029465; conditions: cited from earlier work
α-glucosidase = α-glucosidase (Saccharomyces cerevisiae, UniProt P53341); test: α-glucosidase inhibition assay (pNPG); assay type: biochemical; conditions: mean ± SE, three replicates
Chain of α-glucosidase (P53341 whole entry): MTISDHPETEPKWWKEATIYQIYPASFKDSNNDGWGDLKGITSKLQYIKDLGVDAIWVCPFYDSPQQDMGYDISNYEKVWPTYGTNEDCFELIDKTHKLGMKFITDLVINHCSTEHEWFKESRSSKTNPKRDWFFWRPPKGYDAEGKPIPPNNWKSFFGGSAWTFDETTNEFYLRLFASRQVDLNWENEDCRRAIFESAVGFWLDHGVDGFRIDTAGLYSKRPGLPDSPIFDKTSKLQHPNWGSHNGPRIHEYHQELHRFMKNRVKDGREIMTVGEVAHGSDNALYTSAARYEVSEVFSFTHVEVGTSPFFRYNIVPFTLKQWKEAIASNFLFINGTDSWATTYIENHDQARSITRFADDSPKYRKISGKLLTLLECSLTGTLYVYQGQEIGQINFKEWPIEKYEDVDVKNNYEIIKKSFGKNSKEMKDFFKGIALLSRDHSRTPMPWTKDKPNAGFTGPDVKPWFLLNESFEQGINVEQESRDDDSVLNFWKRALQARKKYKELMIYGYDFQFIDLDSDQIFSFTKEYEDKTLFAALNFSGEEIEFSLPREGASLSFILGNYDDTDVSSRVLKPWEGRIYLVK
Method: In vitro enzymatic assessments
The mixture was then left at
The absorbance was measured
the enzymatic activity. […] The IC50

[1] = set-up: method as in PMID 39143406; conditions: cited from earlier work
COX-2 enzyme = biological target: COX-2 enzyme; set-up: method as in PMID 39143406; conditions: cited from earlier work

Q: For `Cc1ccc(/C=C2\SC(=O)N(CC(=O)NCCc3c[nH]c4ccccc34)C2=O)cc1` [compound 7], which “glucose levels in diabetic mice” value (diabetic mice) is on record?
A: The value was “suppressed glucose levels in diabetic mice”.

Q: For `C[C@H]1O[C@H](O[C@H]2[C@H](O)[C@@H](O)[C@@H](O[C@H]3[C@H](O)[C@@H](O)C(O)O[C@@H]3CO)O[C@@H]2CO)[C@H](O)[C@@H](O)[C@@H]1N[C@H]1C=C(CO)[C@@H](O)[C@H](O)[C@H]1O` (some centres unmarked) [Acarbose], which “α-Glucosidase Inhibition (%)” value (α-glucosidase) is on record?
A: The value was 62.33 ± 0.16%.

Q: Which results are given for `Cc1ccc(NS(=O)(=O)c2ccc(-c3csc(N/N=C4\C(=O)Nc5ccc(Cl)cc54)n3)cc2)cc1` [compound 6]?
A: edema inhibition (EI) [1]: 38.50%; IC50 (COX-2 enzyme): 8.26 µM; selectivity against COX-2 (SI) (COX-2 enzyme): 2.65
